Counter-ions that a name gives are not always drawn. Like-named read-outs stand apart in the source and are kept apart here. Where a SMILES comes first, the peptide text is derived from it. The star is where a group is joined. Cbz = O=C(OCc1ccccc1)*
How the values were obtained:
[1] = target: T1, SARS-CoV-2 PLpro (nsp3 1564–1878) (Severe acute respiratory syndrome coronavirus 2, UniProt P0DTD1); test: biochemical; set-up: FRET-quenched peptide (Pro3) cleavage by PLpro, 10 min pre-incubation, slope over 20 min, normalised to no-compound control; conditions: low concentration screen, read-out: % of control remaining
[2] = target: T1, SARS-CoV-2 PLpro (nsp3 1564–1878); test: biochemical; set-up: FRET-quenched peptide (Pro3) cleavage by PLpro, 10 min pre-incubation, slope over 20 min, normalised to no-compound control; conditions: high concentration screen, read-out: % of control remaining

Compound: CCCCCN(CCCCC)C(=O)C(CCC(=O)O)NC(=O)c1ccc(Cl)c(Cl)c1 (centres unmarked) [Lorglumide sodium]
- remaining activity at 1.25 µM ([1]; Well no.=820): 102%
- remaining activity at 3.75 µM ([2]; Well no.=820): 99.3%

Compound: CCCCCN(CCCCC)C(=O)C(CCC(=O)O)NC(=O)c1ccc(Cl)c(Cl)c1 (centres unmarked) [Lorglumide]
- remaining activity at 1.25 µM ([1]; Well no.=2276): 96.2%
- remaining activity at 3.75 µM ([2]; Well no.=2276): 98.3%

Compound: CCCCc1nc(Cl)c(CO)n1Cc1ccc(-c2ccccc2-c2nnn[nH]2)cc1 [Losartan (potassium)]
- remaining activity at 1.25 µM ([1]; Well no.=8239): 101%
- remaining activity at 3.75 µM ([2]; Well no.=8239): 104%

Compound: CCCCc1nc(Cl)c(CO)n1Cc1ccc(-c2ccccc2-c2nnn[nH]2)cc1 [Losartan potassium]
- remaining activity at 1.25 µM ([1]; Well no.=2278): 94.3%
- remaining activity at 3.75 µM ([2]; Well no.=2278): 95.8%

Compound: CCOC(=O)O[C@]1(C(=O)OCCl)CC[C@H]2[C@@H]3CCC4=CC(=O)C=C[C@]4(C)[C@H]3[C@@H](O)C[C@@]21C [Loteprednol Etabonate]
- remaining activity at 1.25 µM ([1]; Well no.=4618): 98%
- remaining activity at 1.25 µM ([1]; Well no.=6459): 99.9%
- remaining activity at 3.75 µM ([2]; Well no.=4618): 103%
- remaining activity at 3.75 µM ([2]; Well no.=6459): 97.6%

Compound: CN1CCN(C2=Nc3ccccc3Oc3ccc(Cl)cc32)CC1 [Loxapine (succinate)]
- remaining activity at 1.25 µM ([1]; Well no.=6172): 93.4%
- remaining activity at 3.75 µM ([2]; Well no.=6172): 87.5%

Compound: CN1CCN(C2=Nc3ccccc3Oc3ccc(Cl)cc32)CC1 [Loxapine succinate]
- remaining activity at 1.25 µM ([1]; Well no.=1125): 93.3%
- remaining activity at 3.75 µM ([2]; Well no.=1125): 89.7%

Compound: CN1CCN(C2=Nc3ccccc3Oc3ccc(Cl)cc32)CC1 [Loxapine]
- remaining activity at 1.25 µM ([1]; Well no.=6371): 99.7%
- remaining activity at 3.75 µM ([2]; Well no.=6371): 102%

Compound: CCCCCN(CCCOC)C(=O)C(CCC(=O)O)NC(=O)c1ccc(Cl)c(Cl)c1 (centres unmarked) [Loxiglumide]
- remaining activity at 1.25 µM ([1]; Well no.=8483): 94.1%
- remaining activity at 3.75 µM ([2]; Well no.=8483): 95%

Compound: NC(=O)[C@@H]1CCCC[C@@H]1C(=O)Nc1ccc(Cl)c(Cl)c1 [Lu AF21934]
- remaining activity at 1.25 µM ([1]; Well no.=8529): 104%
- remaining activity at 3.75 µM ([2]; Well no.=8529): 104%

Compound: CCCCN(CCCC)CC(O)c1cc(Cl)cc2c1-c1ccc(Cl)cc1/C2=C/c1ccc(Cl)cc1 (centres unmarked) [Lumefantrine]
- remaining activity at 1.25 µM ([1]; Well no.=5499): 102%
- remaining activity at 3.75 µM ([2]; Well no.=5499): 108%

Compound: OC[C@@H]1CCCN2CCCC[C@H]12 [Lupinine]
- remaining activity at 1.25 µM ([1]; Well no.=3609): 104%
- remaining activity at 3.75 µM ([2]; Well no.=3609): 107%

Compound: O=C1[C@@H]2[C@H]3CC[C@H](C3)[C@@H]2C(=O)N1C[C@@H]1CCCC[C@H]1CN1CCN(c2nsc3ccccc23)CC1 [Lurasidone HCl]
- remaining activity at 1.25 µM ([1]; Well no.=4891): 99.3%
- remaining activity at 3.75 µM ([2]; Well no.=4891): 98%

Compound: O=c1cc(-c2ccc(O)c(O[C@@H]3O[C@H](CO)[C@@H](O)[C@H](O)[C@H]3O)c2)oc2cc(O[C@@H]3O[C@H](CO)[C@@H](O)[C@H](O)[C@H]3O)cc(O)c12 [Luteolin-3',7-diglucoside]
- remaining activity at 1.25 µM ([1]; Well no.=3309): 97.1%
- remaining activity at 3.75 µM ([2]; Well no.=3309): 95.6%

Compound: O=c1cc(-c2ccc(O)c(O)c2)oc2cc(O)cc(O)c12 [Luteolin]
- remaining activity at 1.25 µM ([1]; Well no.=837): 96.9%
- remaining activity at 1.25 µM ([1]; Well no.=3318): 97.2%
- remaining activity at 3.75 µM ([2]; Well no.=837): 102%
- remaining activity at 3.75 µM ([2]; Well no.=3318): 98.3%

Compound: CC(=O)NCCc1c(Cc2ccccc2)[nH]c2ccccc12 [Luzindole]
- remaining activity at 1.25 µM ([1]; Well no.=5524): 92.5%
- remaining activity at 3.75 µM ([2]; Well no.=5524): 96.8%

Compound: O[C@H]1[C@H]2c3cc4c(cc3CN3CCC(=C[C@@H]1O)[C@H]23)OCO4 [Lycorine]
- remaining activity at 1.25 µM ([1]; Well no.=3379): 99.9%
- remaining activity at 3.75 µM ([2]; Well no.=3379): 99.5%

Compound: CN1C[C@H](CO)C=C2c3cccc4[nH]cc(c34)C[C@H]21 [Lysergol]
- remaining activity at 1.25 µM ([1]; Well no.=3382): 96.8%
- remaining activity at 3.75 µM ([2]; Well no.=3382): 93.3%

Compound: CCCCCCCC/C=C\CCCCCCCC(=O)OC[C@@H](O)COP(=O)(O)O [Lysophosphatidic acid]
- remaining activity at 1.25 µM ([1]; Well no.=4497): 97.9%
- remaining activity at 3.75 µM ([2]; Well no.=4497): 105%

Compound: CCc1cnc(N2CCC(c3nc(COc4ccc(-n5cnnn5)cc4)cs3)CC2)nc1 [MBX-2982]
- remaining activity at 1.25 µM ([1]; Well no.=8381): 102%
- remaining activity at 3.75 µM ([2]; Well no.=8381): 99.5%

Compound: Cn1cc(/C=C/C(=O)c2cccc(F)c2)cc1/C=C/C(=O)NO [MC1568]
- remaining activity at 1.25 µM ([1]; Well no.=4905): 102%
- remaining activity at 3.75 µM ([2]; Well no.=4905): 101%

Compound: CC1=NN(c2ccccc2)C(=O)C1 [MCI-186]
- remaining activity at 1.25 µM ([1]; Well no.=3901): 103%
- remaining activity at 3.75 µM ([2]; Well no.=3901): 103%

Compound: COc1ccc(C(=O)/C=C/c2cc(OC)c(OC)c(OC)c2)cc1OC [MD2-IN-1]
- remaining activity at 1.25 µM ([1]; Well no.=8739): 100%
- remaining activity at 3.75 µM ([2]; Well no.=8739): 95.8%

Compound: CCCCCCn1c(O)c(N=NC(=O)c2ccccc2)c2ccccc21 [MDA 19]
- remaining activity at 1.25 µM ([1]; Well no.=7099): 103%
- remaining activity at 3.75 µM ([2]; Well no.=7099): 103%

Compound: O=C1C(=O)N(Cc2ccc(Cl)c(Cl)c2)c2ccccc21 [MDK83190]
- remaining activity at 1.25 µM ([1]; Well no.=6404): 101%
- remaining activity at 1.25 µM ([1]; Well no.=8130): 94.6%
- remaining activity at 3.75 µM ([2]; Well no.=6404): 99.4%
- remaining activity at 3.75 µM ([2]; Well no.=8130): 90%

Compound: c1ccc([C@@H]2CCC[C@@H]2NC2=NCCCCCCCCCCC2)cc1 [MDL 12,330A hydrochloride]
- remaining activity at 1.25 µM ([1]; Well no.=993): 103%
- remaining activity at 3.75 µM ([2]; Well no.=993): 101%

Compound: NCCC1CCCC(CCN)N1 (centres unmarked) [MDL 26,630 trihydrochloride]
- remaining activity at 1.25 µM ([1]; Well no.=945): 103%
- remaining activity at 3.75 µM ([2]; Well no.=945): 104%

Compound: O=C(O)/C(=C/c1c(C(=O)O)[nH]c2cc(Cl)cc(Cl)c12)c1ccccc1 [MDL 105,519]
- remaining activity at 1.25 µM ([1]; Well no.=803): 95%
- remaining activity at 3.75 µM ([2]; Well no.=803): 93%

Compound: CC(C)[C@H](NC(=O)OCc1ccccc1)C(=O)N[C@H](C=O)Cc1ccccc1 [MDL 28170] (Cbz-Val-Phe-aldehyde)
- remaining activity at 1.25 µM ([1]; Well no.=790): 106%
- remaining activity at 3.75 µM ([2]; Well no.=790): 105%

Compound: CNC(=O)c1ccc(N2C(=S)N(c3ccc(C#N)c(C(F)(F)F)c3)C(=O)C2(C)C)cc1F [MDV3100 (Enzalutamide)]
- remaining activity at 1.25 µM ([1]; Well no.=4759): 102%
- remaining activity at 3.75 µM ([2]; Well no.=4759): 104%

Compound: CC(C)(CCCCCCCCCCC(C)(C)CC(=O)O)CC(=O)O [MEDICA 16]
- remaining activity at 1.25 µM ([1]; Well no.=5805): 91.5%
- remaining activity at 3.75 µM ([2]; Well no.=5805): 91.6%

Compound: N#C/C(=C(/N)Sc1ccc(N)cc1)c1ccccc1C(F)(F)F [MEK1/2 Inhibitor]
- remaining activity at 1.25 µM ([1]; Well no.=2562): 94.4%
- remaining activity at 3.75 µM ([2]; Well no.=2562): 96.8%

Compound: O=C1C(Cl)=C(N2C(=O)CCC2=O)C(=O)c2ccccc21 [MEK Inhibitor II]
- remaining activity at 1.25 µM ([1]; Well no.=2560): 98%
- remaining activity at 3.75 µM ([2]; Well no.=2560): 98.5%

Compound: CC[N+](CC)(CC)CCOc1ccc(/C=C/c2ccccc2)cc1 [MG 624]
- remaining activity at 1.25 µM ([1]; Well no.=972): 100%
- remaining activity at 3.75 µM ([2]; Well no.=972): 101%

Source: publication PMC8286840, “Identifying SARS-CoV-2 antiviral compounds by screening for small molecule inhibitors of Nsp3 papain-like protease” (Biochemical Journal, 2021)
